PubChem BioAssay (NCI)
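All cell lines were grown in 96-well plates and treated with compound for 48 hours. Definition used: TGI = concentration required for complete inhibition of growth.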

Experiments:
Experiment in all cases: inhibition of tumour cell growth, NCI panel, 48 h
DMS 273 small cell lung = tested on: DMS 273 small cell lung
RPMI-8226 leukemia = tested on: RPMI-8226 leukemia
HL-60(TB) leukemia = tested on: HL-60(TB) leukemia
HCT-116 colon = tested on: HCT-116 colon
K-562 leukemia = tested on: K-562 leukemia
KM20L2 colon = tested on: KM20L2 colon
A498 renal = tested on: A498 renal
MDA-MB-231 breast = tested on: MDA-MB-231 breast
MOLT-4 leukemia = tested on: MOLT-4 leukemia
HOP-92 NSCLC = tested on: HOP-92 NSCLC
UO-31 renal = tested on: UO-31 renal
DU-145 prostate = tested on: DU-145 prostate
CAKI-1 renal = tested on: CAKI-1 renal
HCT-15 colon = tested on: HCT-15 colon
M14 melanoma = tested on: M14 melanoma
SF-268 CNS = tested on: SF-268 CNS
TK-10 renal = tested on: TK-10 renal
HS 578T breast = tested on: HS 578T breast
SK-MEL-2 melanoma = tested on: SK-MEL-2 melanoma
SW-620 colon = tested on: SW-620 colon
UACC-62 melanoma = tested on: UACC-62 melanoma
SK-MEL-5 melanoma = tested on: SK-MEL-5 melanoma
T-47D breast = tested on: T-47D breast
U251 CNS = tested on: U251 CNS
NCI-H522 lung = tested on: NCI-H522 lung
XF 498 CNS = tested on: XF 498 CNS
RXF 393 renal = tested on: RXF 393 renal
OVCAR-8 ovarian = tested on: OVCAR-8 ovarian
A549 NSCLC = tested on: A549 NSCLC
MDA-MB-435 = tested on: MDA-MB-435
IGROV1 ovarian = tested on: IGROV1 ovarian
HT29 colon = tested on: HT29 colon
KM12 colon = tested on: KM12 colon
SF-295 CNS = tested on: SF-295 CNS
LOX IMVI melanoma = tested on: LOX IMVI melanoma
NCI/ADR-RES ovarian = tested on: NCI/ADR-RES ovarian
COLO 205 colon = tested on: COLO 205 colon
M19-MEL melanoma = tested on: M19-MEL melanoma
HOP-18 NSCLC = tested on: HOP-18 NSCLC
HOP-62 NSCLC = tested on: HOP-62 NSCLC
NCI-H23 lung = tested on: NCI-H23 lung
MDA-N = tested on: MDA-N
OVCAR-3 ovarian = tested on: OVCAR-3 ovarian
OVCAR-4 ovarian = tested on: OVCAR-4 ovarian
SF-539 CNS = tested on: SF-539 CNS
SNB-75 CNS = tested on: SNB-75 CNS
HCC-2998 colon = tested on: HCC-2998 colon
EKVX NSCLC = tested on: EKVX NSCLC
786-0 renal = tested on: 786-0 renal
SK-OV-3 ovarian = tested on: SK-OV-3 ovarian
PC-3 prostate = tested on: PC-3 prostate
LXFL 529 NSCLC = tested on: LXFL 529 NSCLC
SK-MEL-28 melanoma = tested on: SK-MEL-28 melanoma
UACC-257 melanoma = tested on: UACC-257 melanoma
MCF7 breast = tested on: MCF7 breast
NCI-H460 lung = tested on: NCI-H460 lung
MALME-3M melanoma = tested on: MALME-3M melanoma
DMS 114 small cell lung = tested on: DMS 114 small cell lung
SNB-19 CNS = tested on: SNB-19 CNS
NCI-H226 lung = tested on: NCI-H226 lung
SN12C renal = tested on: SN12C renal
BT-549 breast = tested on: BT-549 breast
CCRF-CEM leukemia = tested on: CCRF-CEM leukemia
OVCAR-5 ovarian = tested on: OVCAR-5 ovarian
ACHN renal = tested on: ACHN renal

`O=C(Cc1ccccc1F)NC1=C(Cl)C(=O)c2ccccc2C1=O` was tested, and the TGI (DMS 273 small cell lung) was 11.5 µM, the TGI (RPMI-8226 leukemia) was 19.1 µM and the TGI (HL-60(TB) leukemia) was 0.8 µM. The TGI (HCT-116 colon) was 5.12 µM, the TGI (K-562 leukemia) was over 41.8 µM and the TGI (KM20L2 colon) was 29.8 µM. The TGI (A498 renal) was 33.4 µM, the TGI (MDA-MB-231 breast) was 13.8 µM and the TGI (MOLT-4 leukemia) was 6.47 µM. For the same compound, the TGI (HOP-92 NSCLC) was 2.49 µM, the TGI (UO-31 renal) was 8.98 µM and the TGI (DU-145 prostate) was 21.8 µM. It also gave a TGI (CAKI-1 renal) of 9.42 µM, a TGI (HCT-15 colon) of 13.3 µM and a TGI (M14 melanoma) of 7.41 µM. It also gave a TGI (SF-268 CNS) of 15.1 µM, a TGI (TK-10 renal) of 5.29 µM and a TGI (HS 578T breast) of 23.8 µM. It also gave a TGI (SK-MEL-2 melanoma) of 2.98 µM, a TGI (SW-620 colon) of 3.81 µM and a TGI (UACC-62 melanoma) of 1.92 µM. For the same compound, the TGI (SK-MEL-5 melanoma) was 4.37 µM, the TGI (T-47D breast) was 5.8 µM and the TGI (U251 CNS) was 4.67 µM. The TGI (NCI-H522 lung) was 0.565 µM, the TGI (XF 498 CNS) was 1.68 µM and the TGI (RXF 393 renal) was 0.816 µM. For the same compound, the TGI (OVCAR-8 ovarian) was 9.36 µM, the TGI (A549 NSCLC) was 15.7 µM and the TGI (MDA-MB-435) was 10.4 µM. For the same compound, the TGI (IGROV1 ovarian) was 9.25 µM, the TGI (HT29 colon) was 19.5 µM and the TGI (KM12 colon) was 4.11 µM. For the same compound, the TGI (SF-295 CNS) was 11.8 µM, the TGI (LOX IMVI melanoma) was 5.99 µM and the TGI (NCI/ADR-RES ovarian) was 6.25 µM. The TGI (COLO 205 colon) was 6.9 µM, the TGI (M19-MEL melanoma) was 12.4 µM and the TGI (HOP-18 NSCLC) was 3.32 µM. For the same compound, the TGI (HOP-62 NSCLC) was 24.2 µM, the TGI (NCI-H23 lung) was 3.87 µM and the TGI (MDA-N) was 11.8 µM. It also gave a TGI (OVCAR-3 ovarian) of 2.9 µM, a TGI (OVCAR-4 ovarian) of 5.65 µM and a TGI (SF-539 CNS) of 1.93 µM. For the same compound, the TGI (SNB-75 CNS) was 8.06 µM, the TGI (HCC-2998 colon) was 15.2 µM and the TGI (EKVX NSCLC) was 18 µM. The TGI (786-0 renal) was 9.68 µM, the TGI (SK-OV-3 ovarian) was 13.7 µM and the TGI (PC-3 prostate) was 11.9 µM. For the same compound, the TGI (LXFL 529 NSCLC) was 5.56 µM, the TGI (SK-MEL-28 melanoma) was 9.6 µM and the TGI (UACC-257 melanoma) was 4.32 µM. The TGI (MCF7 breast) was 21.4 µM, the TGI (NCI-H460 lung) was 21.7 µM and the TGI (MALME-3M melanoma) was 5 µM. The TGI (DMS 114 small cell lung) was 0.543 µM, the TGI (SNB-19 CNS) was 25.2 µM and the TGI (NCI-H226 lung) was 6.7 µM. For the same compound, the TGI (SN12C renal) was 16.8 µM, the TGI (BT-549 breast) was 7.26 µM and the TGI (CCRF-CEM leukemia) was 7.36 µM. It also gave a TGI (OVCAR-5 ovarian) of 21.2 µM and a TGI (ACHN renal) of 2.02 µM.
